# From patent publication US9593149B2, “Amylin and calcitonin receptor agonist” (Novo Nordisk A/S, priority 2014, dated 2017)
# Numbered stars: 1 amine (or outer) side, 2 acyl side, 3 side chain; on linkers, the order of the positions; unused ones are H or OH. Peptide text beside a SMILES is read from it. * marks the point of attachment. C18 diacid = O=C(O)CCCCCCCCCCCCCCCCC(=O)*; C16 diacid = O=C(O)CCCCCCCCCCCCCCC(=O)*; γGlu = O=C(O)[C@H](CCC(=O)[*:2])N[*:1]; C14 diacid = O=C(O)CCCCCCCCCCCCC(=O)*
# Columns and labels:
# [1] = Assay (IV) determination of solubility; type: physicochemical
# Description: Assay (IV)—Determination of Solubility
# The mimylin peptide was dissolved in water at ˜500 nmol/ml and mixed 1:1 with a series of buffers (100 mM glycylglycine pH 3.0, 100 mM glycylglycine pH 4.0, 100 mM glycylglycine pH 5.0, 100 mM bistrispropane pH 6.0, 100 mM bistrispropane pH 6.5, 100 mM bistrispropane pH 7.0, 100 mM bistrispropane pH 7.5, 100 mM bistrispropane pH 8.0).
# [2] = Assay (IX) pK, T½ in mini-pig; type: in vivo, Göttingen mini-pigs; details: i.v.
# Outline: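 Female Göttingen mini-pigs (5–12 months, 15–35 kg, fed freely) received a single i.v. dose of approximately 5 nmol/kg via central venous catheter, typically n=3. Plasma was sampled from pre-dose to 240 h (sometimes 288 h) and quantified by LC-MS. T½ was derived by non-compartmental analysis from the terminal log-linear slope (ln2/λz).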
# [3] = Assay (X) pK, T½ in rat; type: in vivo, Sprague Dawley rats; details: for PK rat iv T½: i.v.; for PK rat sc T½: s.c.
# Description: Assay (X)—pK—Determination of T½ in Rat
# Pharmacokinetic (PK) studies rats were conducted in order to determine the T½ of mimylin peptide after i.v. and s.c. administration.
# T½ values of the mimylin derivates of the invention is determined by pharmacokinetic studies in Sprague Dawley male rats, from Taconic Europe and the principles of laboratory animal care are followed.
# An acclimatisation period of approximately 7 days was allowed before the animals entered the study. At start of the acclimatisation period the rats were in the weight range of 250-400 g.
# The studies were conducted in an animal room which was illuminated to give a cycle of approximately 12 hours light and 12 hours darkness. The animals were group housed and had food and water ad lib. The animals were weighed on the days of dosing.
# In the present studies the test substances were administered subcutaneously or intravenously in approximately 20 nmol/kg dose. The animals received a single subcutaneous injection to the neck for subtaneous administration or directly into the tail vein for intravenous administration. Each test substance was given to typically three but in some cases two or four animals.
# A full plasma concentration-time profile, employing 8-10 sampling points, was obtained from each animal. In example blood samples were collected according to the following schedule: After subcutaneous or intravenous administration:
# At each sampling time, 0.08 to 0.10 ml of blood was drawn from each animal. The blood samples were taken in the sublingual vein via venous puncture and the use of a capillary tube.
# The blood samples were stabilised with EDTA. Blood samples were kept on ice for max 20 min. before centrifugation. Plasma was separated using centrifugation (i.e. at 4° C., 10 min., 1500G) and was immediately transferred to Micronic tubes or PCR plates. Approximately 40 μl plasma was transferred and was stored at −20° C. until assayed. The plasma samples were assayed for the content of mimylin compound by LCMS
# The plasma concentration-time profiles were analysed by a non-compartmental pharmacokinetic analysis (NCA) using Phoenix WinNonlin 6.3 (Pharsight Inc., Mountain View, Calif., USA). NCA was performed using the individual plasma concentration-time profiles from each animal. T½ is the terminal half-life=In2/λz and was determined from λz, the first order rate constant associated with the terminal (log-linear) portion of the curve, estimated by linear regression of time vs. log concentration.
# [4] = molecular target: T1, human amylin 3(a) receptor (human calcitonin receptor + RAMP-3), BHK570 cells (Homo sapiens, UniProt O60896+P30988); assay: Assay (II)a functional CRE-luciferase assay with albumin, human amylin receptor; type: cell-based; details: Tested with HSA; read-out: hAmylin-R funct. EC50
# T1 construct: host or cells: BHK570
# T1 sequence (O60896 24-148, one chain of several): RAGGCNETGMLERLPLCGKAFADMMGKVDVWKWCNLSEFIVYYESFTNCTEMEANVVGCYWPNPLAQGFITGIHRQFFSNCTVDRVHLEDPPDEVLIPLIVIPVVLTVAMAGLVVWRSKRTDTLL
# From the text: (§1) Assay(II)a—Human Calcitonin and Amylin Receptor Assay
# (§2) 1. Luciferase Assay Outline
# (§3) Activation of calcitonin and amylin (co-expression of calcitonin receptor and receptor activity modifying proteins (RAMP)) receptors lead to increased intracellular concentrations of cAMP. Consequently, transcription is activated by promoters containing multiple copies of the cAMP response element (CRE). It is thus possible to measure amylin activity by the use of a CRE luciferase reporter gene introduced into BHK cells also expressing calcitonin or amylin receptors.
# (§4) 2. Construction of Calcitonin (a)—and Amylin 3(a)—Receptor/CRE-Luc Cell Line.
# (§5) A BHK570 cell line was stably transfected with the human calcitonin receptor and a CRE-responsive luciferase reporter gene. The cell line was further transfected with RAMP-3, using standard methods. This turns the calcitonin receptor into an amylin 3(a) receptor. Methotrexate, Neomycin, and Hygromycin are selection markers for luciferase, the calcitonin receptor, and RAMP-3, respectively.
# (§6) To perform activity assays, BHK calcitonin (a) receptor- or amylin 3(a)-receptor/CRE-luc cells were seeded in white 96 well culture plates at a density of about 20.000 cells/well. […] After incubation overnight at 37° C. and 5% CO2, the growth medium was replaced by 50 μl/well assay medium (DMEM (without phenol red), Glutamax™, 10% FBS, and 10 mM Hepes, pH 7.4). Further, 50 μl/well of standard or sample in assay buffer were added.
# (§7) After 3 hours incubation at 37° C. and 5% CO2, the assay medium with standard or sample were removed and replaced by 100 μl/well PBS. Further, 100 μl/well LucLite™ was added. The plates were sealed and incubated at room temperature for 30 minutes. Finally, luminescence was tested on a TopCounter (Packard) in SPC (single photon counting) mode.
# [5] = molecular target: T2, human calcitonin (a) receptor, BHK570 cells (Homo sapiens, UniProt P30988); assay: Assay (II)a functional CRE-luciferase assay with albumin, human calcitonin receptor; type: cell-based; details: Tested with HSA; read-out: hCTR funct. EC50
# T2 construct: host or cells: BHK570
# T2 sequence (P30988 25-474): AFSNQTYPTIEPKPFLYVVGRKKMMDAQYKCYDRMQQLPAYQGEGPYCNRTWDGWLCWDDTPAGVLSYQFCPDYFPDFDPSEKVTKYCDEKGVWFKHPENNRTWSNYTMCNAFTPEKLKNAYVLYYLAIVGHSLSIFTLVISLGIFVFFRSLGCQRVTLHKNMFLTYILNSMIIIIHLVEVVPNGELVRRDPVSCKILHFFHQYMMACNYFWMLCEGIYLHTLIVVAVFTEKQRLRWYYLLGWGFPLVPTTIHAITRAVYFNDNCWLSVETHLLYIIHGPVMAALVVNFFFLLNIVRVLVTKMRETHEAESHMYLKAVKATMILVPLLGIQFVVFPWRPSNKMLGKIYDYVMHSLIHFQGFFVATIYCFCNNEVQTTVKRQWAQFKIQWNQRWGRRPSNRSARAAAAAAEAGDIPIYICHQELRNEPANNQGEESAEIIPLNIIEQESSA
# From the text: as §1, §2, §3, §4, §5, §6, §7
# [6] = molecular target: T1, human amylin 3(a) receptor (human calcitonin receptor + RAMP-3), BHK570 cells; assay: Assay (II)b functional CRE-luciferase assay without albumin, human amylin receptor; type: cell-based; details: Tested without HSA; read-out: hAmylin-R funct. EC50
# Outline: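 Agonism measured as CRE-driven luciferase luminescence after 3 h sample exposure at 37 °C, without albumin (0.1% ovalbumin, Hepes pH 7.4 medium). Reporter cells: BHK570 carrying human calcitonin receptor, co-transfected with RAMP-3 to form the amylin 3(a) receptor.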
# [7] = molecular target: T2, human calcitonin (a) receptor, BHK570 cells; assay: Assay (II)b functional CRE-luciferase assay without albumin, human calcitonin receptor; type: cell-based; details: Tested without HSA; read-out: hCTR funct. EC50
# Outline: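 BHK570 cells stably expressing human calcitonin receptor with CRE-luciferase reporter, plus RAMP-3 for the amylin 3(a) line. Cells stimulated 3 hours at 37 °C in albumin-free assay medium (0.1% ovalbumin, 10 mM Hepes pH 7.4); cAMP-driven luciferase read by luminescence.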
Structure (SMILES),Solubility ([1]; pH 3.0),Solubility ([1]; pH 4.0),Solubility ([1]; pH 5.0),Solubility ([1]; pH 6.0),Solubility ([1]; pH 6.5),Solubility ([1]; pH 7.0),Solubility ([1]; pH 7.5),Solubility ([1]; pH 8.0),PK mini pig iv T½ [2],PK rat iv T½ [3],PK rat sc T½ [3],also measured
"CC(C)C[C@H](NC(=O)[C@H](C)NC(=O)[C@H](C)NC(=O)[C@@H](NC(=O)[C@H](CO)NC(=O)[C@H](CC(C)C)NC(=O)[C@H](CCC(=O)O)NC(=O)[C@H](CO)NC(=O)[C@H](C)NC(=O)[C@H](CCC(=O)O)NC(=O)CCCCCCCCCCCCC(=O)O)[C@@H](C)O)C(=O)NCC(=O)N[C@@H](CCCNC(=N)N)C(=O)N[C@@H](CC(C)C)C(=O)N[C@@H](CO)C(=O)N[C@@H](C)C(=O)N[C@@H](CCC(=O)O)C(=O)N[C@@H](CC(C)C)C(=O)N[C@@H](Cc1cnc[nH]1)C(=O)N[C@@H](CCC(=O)O)C(=O)N[C@@H](CC(C)C)C(=O)N[C@@H](C)C(=O)N[C@H](C(=O)N[C@@H](CC(C)C)C(=O)N1CCC[C@H]1C(=O)N[C@@H](CCCNC(=N)N)C(=O)N[C@H](C(=O)N[C@@H](CCC(=O)O)C(=O)N[C@H](C(=O)NCC(=O)N1CCC[C@H]1C(=O)N[C@@H](CCC(=O)O)C(=O)N[C@@H](CO)C(=O)N1CCC[C@H]1C(N)=O)[C@@H](C)O)[C@@H](C)O)[C@@H](C)O [Ex. #4, [N-terminal(C14 diacid)]mimylin] ({C14 diacid}-EASELSTAALGRLSAELHELATLPRTETGPESP-NH2)",≧200 μM,≧200 μM,≧200 μM,≧200 μM,≧200 μM,≧200 μM,≧200 μM,≧200 μM,2 h,3 h,3 h,–
"CC(C)C[C@H](NC(=O)[C@H](C)NC(=O)[C@H](C)NC(=O)[C@@H](NC(=O)[C@H](CO)NC(=O)[C@H](CC(C)C)NC(=O)[C@H](CCC(=O)O)NC(=O)[C@H](CO)NC(=O)[C@H](C)NC(=O)[C@H](CCC(=O)O)NC(=O)CCCCCCCCCCCCCCC(=O)O)[C@@H](C)O)C(=O)NCC(=O)N[C@@H](CCCNC(=N)N)C(=O)N[C@@H](CC(C)C)C(=O)N[C@@H](CO)C(=O)N[C@@H](C)C(=O)N[C@@H](CCC(=O)O)C(=O)N[C@@H](CC(C)C)C(=O)N[C@@H](Cc1cnc[nH]1)C(=O)N[C@@H](CCC(=O)O)C(=O)N[C@@H](CC(C)C)C(=O)N[C@@H](C)C(=O)N[C@H](C(=O)N[C@@H](CC(C)C)C(=O)N1CCC[C@H]1C(=O)N[C@@H](CCCNC(=N)N)C(=O)N[C@H](C(=O)N[C@@H](CCC(=O)O)C(=O)N[C@H](C(=O)NCC(=O)N1CCC[C@H]1C(=O)N[C@@H](CCC(=O)O)C(=O)N[C@@H](CO)C(=O)N1CCC[C@H]1C(N)=O)[C@@H](C)O)[C@@H](C)O)[C@@H](C)O [compound 3, [N-terminal(C16 diacid)]mimylin] ({C16 diacid}-EASELSTAALGRLSAELHELATLPRTETGPESP-NH2)",≧200 μM,≧200 μM,≧200 μM,≧200 μM,≧200 μM,≧200 μM,≧200 μM,≧200 μM,17 h,3 h,3 h,–
"CC(C)C[C@H](NC(=O)[C@H](C)NC(=O)[C@H](C)NC(=O)[C@@H](NC(=O)[C@H](CO)NC(=O)[C@H](CC(C)C)NC(=O)[C@H](CCC(=O)O)NC(=O)[C@H](CO)NC(=O)[C@H](C)NC(=O)CC[C@H](NC(=O)CCCCCCCCCCCCCCCCC(=O)O)C(=O)O)[C@@H](C)O)C(=O)NCC(=O)N[C@@H](CCCNC(=N)N)C(=O)N[C@@H](CC(C)C)C(=O)N[C@@H](CO)C(=O)N[C@@H](C)C(=O)N[C@@H](CCC(=O)O)C(=O)N[C@@H](CC(C)C)C(=O)N[C@@H](Cc1c[nH]cn1)C(=O)N[C@@H](CCC(=O)O)C(=O)N[C@@H](CC(C)C)C(=O)N[C@@H](C)C(=O)N[C@H](C(=O)N[C@@H](Cc1ccc(O)cc1)C(=O)N1CCC[C@H]1C(=O)N[C@@H](CCCNC(=N)N)C(=O)N[C@H](C(=O)N[C@@H](CCC(=O)O)C(=O)N[C@H](C(=O)NCC(=O)N[C@@H](CO)C(=O)NCC(=O)N[C@@H](CO)C(=O)N1CCC[C@H]1C(N)=O)[C@@H](C)O)[C@@H](C)O)[C@@H](C)O [compound 58, [N-terminal(C18 diacid-gGlu), des1, 23Y, 30S, 31G]mimylin] ({C18 diacid-γGlu}-ASELSTAALGRLSAELHELATYPRTETGSGSP-NH2)",–,–,–,–,–,–,–,–,–,–,–,"EC50 [4]: 0.024 nM; EC50 [5]: 0.015 nM; EC50 [6]: 0.01 nM; EC50 [7]: 0.01 nM; solubility at 18 h ([1]; bistrispropane buffer, pH 6.5): ≥ 200 µM; solubility at 18 h ([1]; bistrispropane buffer, pH 7.5): ≥ 200 µM; solubility at 18 h ([1]; bistrispropane buffer, pH 6.0): ≥ 200 µM; solubility at 18 h ([1]; bistrispropane buffer, pH 7.0): ≥ 200 µM; solubility at 18 h ([1]; bistrispropane buffer, pH 8.0): ≥ 200 µM; solubility at 18 h ([1]; glycylglycine buffer, pH 3.0): ≥ 200 µM; solubility at 18 h ([1]; glycylglycine buffer, pH 4.0): ≥ 200 µM; solubility at 18 h ([1]; glycylglycine buffer, pH 5.0): ≥ 200 µM"
